From patent publication US10052320B2, “Substituted quinoxalines as FGFR kinase inhibitors” (ASTEX THERAPEUTICS LIMITED, priority 2011, dated 2018)
Like-named read-outs stand apart in the source and are kept apart here.

How the values were obtained:
FGFR1 (h) = FGFR1 (h) (Homo sapiens, UniProt P11362); experiment: FGFR1 (enzymatic assay), TR-FRET; type: biochemical; settings: read-out: FGFR 1 pIC50 (converted)
Method: (§1) In a final reaction volume of 30 μL, FGFR1 (h) (25 ng/ml) was incubated with 50 mM HEPES pH 7.5, 6 mM MnCl2, 1 mM DTT, 0.1 mM Na3VO4, 0.01% Triton-X-100, 500 nM Btn-Flt3 and 5 μM ATP in the presence of compound (1% DMSO final). […] Time-Resolved Fluorescence Resonance Energy Transfer (TR-FRET) signal (ex340 nm. Em 620 nm, em 655 nm) was measured afterwards and results are expressed in RFU (Relative Fluorescence Units).

FGFR2 (h) = FGFR2 (h) (Homo sapiens, UniProt P21802); experiment: FGFR2 (enzymatic assay), TR-FRET; type: biochemical; settings: read-out: FGFR 2 pIC50 (converted)
Sequence of FGFR2 (h) (P21802 22-821): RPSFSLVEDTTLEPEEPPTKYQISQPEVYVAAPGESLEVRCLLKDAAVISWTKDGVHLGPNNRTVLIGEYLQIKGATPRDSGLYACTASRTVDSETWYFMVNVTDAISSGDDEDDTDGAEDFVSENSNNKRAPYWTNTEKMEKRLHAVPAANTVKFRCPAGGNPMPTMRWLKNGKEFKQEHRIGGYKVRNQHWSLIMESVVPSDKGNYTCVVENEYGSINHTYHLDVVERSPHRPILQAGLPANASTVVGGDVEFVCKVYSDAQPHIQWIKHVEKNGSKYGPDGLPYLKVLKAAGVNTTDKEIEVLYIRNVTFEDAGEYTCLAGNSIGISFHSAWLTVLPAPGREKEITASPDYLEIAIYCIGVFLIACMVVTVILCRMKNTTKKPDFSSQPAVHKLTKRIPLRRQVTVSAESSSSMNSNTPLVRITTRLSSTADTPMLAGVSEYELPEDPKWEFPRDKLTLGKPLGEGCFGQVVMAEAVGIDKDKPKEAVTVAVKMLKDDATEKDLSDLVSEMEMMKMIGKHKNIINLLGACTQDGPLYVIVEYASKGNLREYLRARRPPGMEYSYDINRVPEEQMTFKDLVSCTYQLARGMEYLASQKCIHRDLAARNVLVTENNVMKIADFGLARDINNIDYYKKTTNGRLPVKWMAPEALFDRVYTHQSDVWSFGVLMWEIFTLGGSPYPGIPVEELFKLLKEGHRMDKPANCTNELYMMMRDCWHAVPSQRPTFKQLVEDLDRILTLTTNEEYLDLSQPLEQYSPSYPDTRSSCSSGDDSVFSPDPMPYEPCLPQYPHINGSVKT
Method: as §1, with “μL, FGFR2” for “μL, FGFR1”, “(h) (150” for “(h) (25”, “and 0.4” for “and 5”, “in” for “in RFU”

FGFR3 (h) = FGFR3 (h) (Homo sapiens, UniProt P22607); experiment: FGFR3 (enzymatic assay), TR-FRET; type: biochemical; settings: read-out: FGFR 3 pIC50 (converted)
Sequence of FGFR3 (h) (P22607 23-806): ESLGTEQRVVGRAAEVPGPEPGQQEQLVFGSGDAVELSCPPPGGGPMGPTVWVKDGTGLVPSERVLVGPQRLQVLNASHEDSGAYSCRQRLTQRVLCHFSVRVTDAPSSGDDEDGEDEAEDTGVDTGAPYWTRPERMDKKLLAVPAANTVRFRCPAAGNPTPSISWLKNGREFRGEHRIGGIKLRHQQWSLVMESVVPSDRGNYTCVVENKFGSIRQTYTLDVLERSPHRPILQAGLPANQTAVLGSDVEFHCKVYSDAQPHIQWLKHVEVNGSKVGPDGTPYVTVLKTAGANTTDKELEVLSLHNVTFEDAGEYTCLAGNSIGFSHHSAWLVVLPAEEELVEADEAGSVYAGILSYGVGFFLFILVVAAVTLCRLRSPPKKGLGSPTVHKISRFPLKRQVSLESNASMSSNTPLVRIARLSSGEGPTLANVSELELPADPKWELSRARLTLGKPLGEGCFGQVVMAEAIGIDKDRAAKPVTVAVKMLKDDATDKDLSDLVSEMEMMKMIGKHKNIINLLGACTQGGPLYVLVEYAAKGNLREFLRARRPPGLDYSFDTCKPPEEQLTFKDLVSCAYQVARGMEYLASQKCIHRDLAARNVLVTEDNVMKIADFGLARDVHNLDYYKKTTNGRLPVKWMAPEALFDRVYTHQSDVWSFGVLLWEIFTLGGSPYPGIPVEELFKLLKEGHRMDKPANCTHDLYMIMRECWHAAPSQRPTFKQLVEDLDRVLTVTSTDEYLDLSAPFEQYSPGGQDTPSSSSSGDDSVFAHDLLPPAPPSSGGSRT
Method: as §1, with “μL, FGFR3” for “μL, FGFR1”, “(h) (40” for “(h) (25”, “and 25” for “and 5”

[1] = target: Ba/F3-FGFR4-transfected cells (Homo sapiens, UniProt P22455); experiment: Ba/F3-FGFR4 cellular proliferation assay, Alamar Blue; type: cell-based
Sequence of Ba/F3-FGFR4-transfected cells (P22455 whole entry, change not shown): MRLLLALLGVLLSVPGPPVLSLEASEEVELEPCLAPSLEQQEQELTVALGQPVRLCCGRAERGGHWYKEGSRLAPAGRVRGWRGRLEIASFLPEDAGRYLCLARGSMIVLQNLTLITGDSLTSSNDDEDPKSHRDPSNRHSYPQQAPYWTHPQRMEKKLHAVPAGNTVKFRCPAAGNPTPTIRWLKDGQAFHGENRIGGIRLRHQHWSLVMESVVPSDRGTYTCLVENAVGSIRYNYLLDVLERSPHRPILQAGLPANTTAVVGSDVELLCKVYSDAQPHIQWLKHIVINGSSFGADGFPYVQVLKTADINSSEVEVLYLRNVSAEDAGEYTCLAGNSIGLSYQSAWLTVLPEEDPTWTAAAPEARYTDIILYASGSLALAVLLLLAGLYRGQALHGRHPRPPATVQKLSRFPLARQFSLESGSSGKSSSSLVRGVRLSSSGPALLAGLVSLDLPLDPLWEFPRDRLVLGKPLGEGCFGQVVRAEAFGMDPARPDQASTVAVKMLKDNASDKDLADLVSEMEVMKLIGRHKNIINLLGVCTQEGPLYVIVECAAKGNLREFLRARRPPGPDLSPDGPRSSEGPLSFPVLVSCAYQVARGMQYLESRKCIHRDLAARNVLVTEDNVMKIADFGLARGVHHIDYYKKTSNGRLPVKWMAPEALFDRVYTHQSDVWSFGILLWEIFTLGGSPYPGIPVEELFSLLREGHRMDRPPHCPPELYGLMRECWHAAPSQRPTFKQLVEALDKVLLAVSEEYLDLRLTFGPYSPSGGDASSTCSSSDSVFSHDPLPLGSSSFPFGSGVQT
Method: Ba/F3-FGFR4 (Cellular Proliferation Assay)
In a 384 well plate, 100 nl of compound dilution in DMSO was sprayed before adding 50 μl cell culture medium (phenol red free RPMI-1640, 10% FBS, 2 mM L-Glutamine and 50 μg/ml Gentamycin) containing 20000 cells per well of Ba/F3-FGFR4-transfected cells. Cells were put in an incubator at 37° C. and 5% CO2. After 24 hours, 10 μl of Alamar Blue solution (0.5 mM K3Fe(CN)6, 0.5 mM KaFe(CN)6, 0.15 mM Resazurin and 100 mM Phosphate Buffer) was added to the wells, incubated for 4 hours at 37° C. and 5% CO2 before RFU's (Relative Fluorescence Units) (ex. 540 nm., em. 590 nm.) were measured in a flurorescence plate reader.

Sequence of FGFR1 (h) (P11362 22-822): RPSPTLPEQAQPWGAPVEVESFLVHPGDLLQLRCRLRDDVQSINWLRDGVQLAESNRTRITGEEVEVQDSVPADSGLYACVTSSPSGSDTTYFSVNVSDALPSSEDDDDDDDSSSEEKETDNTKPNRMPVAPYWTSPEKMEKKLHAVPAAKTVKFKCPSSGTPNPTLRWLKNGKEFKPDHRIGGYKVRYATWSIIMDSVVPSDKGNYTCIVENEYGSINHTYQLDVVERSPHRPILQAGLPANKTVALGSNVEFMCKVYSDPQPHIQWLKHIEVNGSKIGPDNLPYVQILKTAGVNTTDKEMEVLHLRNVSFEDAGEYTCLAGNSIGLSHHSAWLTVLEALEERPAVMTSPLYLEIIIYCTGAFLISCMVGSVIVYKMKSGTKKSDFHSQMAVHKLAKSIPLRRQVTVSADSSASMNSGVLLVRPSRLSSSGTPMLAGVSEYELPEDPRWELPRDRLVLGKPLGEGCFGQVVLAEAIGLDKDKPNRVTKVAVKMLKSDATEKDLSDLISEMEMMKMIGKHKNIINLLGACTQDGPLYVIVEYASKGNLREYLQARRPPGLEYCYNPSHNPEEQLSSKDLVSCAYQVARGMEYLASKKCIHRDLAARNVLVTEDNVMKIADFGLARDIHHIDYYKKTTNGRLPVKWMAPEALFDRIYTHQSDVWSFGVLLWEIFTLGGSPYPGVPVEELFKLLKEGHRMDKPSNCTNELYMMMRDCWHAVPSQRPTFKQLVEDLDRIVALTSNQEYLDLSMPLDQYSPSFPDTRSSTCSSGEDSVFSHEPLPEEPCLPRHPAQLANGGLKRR

Compound	IC50 (FGFR1 (h)) [nM]	IC50 (FGFR2 (h)) [nM]	IC50 (FGFR3 (h)) [nM]	BAF3-FGFR4 pIC50 [1]	melting point [°C]	BAF3-FGFR4 pIC50 ([1]; 384 well)
COc1cc(OC)cc(N(CCO)c2ccc3ncc(-c4ccnc(C(=O)NCCCCCN)c4)nc3c2)c1 [Compound 138]	22.9	~31.6	16.2	5.1		
COc1cc(OC)cc(N(CC#Cc2ncccn2)c2ccc3ncc(-c4cccnc4)nc3c2)c1 [Compound 2]	83.2	34.7	56.2	6.9	184	
COc1cc(OC)cc(N(CCCO)c2ccc3ncc(-c4ccnc(-c5ccnc(Cl)c5)c4)nc3c2)c1 [Compound 133]	110	115	50.1	<5	172	
COc1cc(OC)cc(N(CCO)c2ccc3ncc(-n4cnc(CO)c4)nc3c2)c1 [Compound 38]	15.1	25.7	10.5	5.8	215	
COc1cc(OC)cc(N(CCCNCCCO)c2ccc3ncc(-c4ccnc(C(=O)NCCCCN)c4)nc3c2)c1 [Compound 132]	4.37	8.71	18.6	5.6		
COc1cc(OC)cc(N(CCCO)c2ccc3ncc(-c4ccnc(C(=O)NCCCCCN)c4)nc3c2)c1 [Compound 130]	17.4	8.32	11.2	5.0	161	
COc1cc(OC)cc(N(CCCNC(C)C)c2ccc3ncc(-c4ccnc(NC(=O)NC(C)C)c4)nc3c2)c1 [Compound 131]	2.09	4.68	5.89	6.0	155	
COc1cc(OC)cc(N(CCNC(C)C)c2ccc3ncc(-c4ccnc(C(=O)NCCCN)c4)nc3c2)c1 [Compound 146]	2	8.13	12.3	6.3		
COc1cc(OC)cc(N(CCCNCC(=O)O)c2ccc3ncc(-c4ccnc(C(=O)NCCCCN)c4)nc3c2)c1 [Compound 44]	17.4	11	11.2	<5.35	64	
COc1cc(OC)cc(N(CCCNCC(F)(F)F)c2ccc3ncc(-c4ccnc(C(=O)NCCCN)c4)nc3c2)c1 [Compound 148]	36.3	58.9	61.7	<5	87	
COc1cc(OC)cc(N(CCCNC(C)C)c2ccc3ncc(-c4ccnc(NC(=O)OC(C)(C)C)c4)nc3c2)c1 [Compound 137]	3.72	8.32	8.51	6.1	172	
COc1cc(OC)cc(N(CCCO)c2ccc3ncc(-c4cnc(N5CCN(C)CC5)c(C)c4)nc3c2)c1 [Compound 135]	2	6.17	2.45	6.1	179	
COCC(CN(c1cc(OC)cc(OC)c1)c1ccc2ncc(-c3cccnc3)nc2c1)OC(C)=O (single isomer, unassigned) [Compound 52]	87.1	91.2	28.8	5.2		
COc1cc(OC)cc(N(CCCNCC(F)(F)F)c2ccc3ncc(-c4ccnc(F)c4)nc3c2)c1 [Compound 144]	74.1	~85.1	56.2	<5	128	
COc1cc(OC)cc(N(CCCO)c2ccc3ncc(-c4cccnc4F)nc3c2)c1 [Compound 149]	60.3	102	35.5	5.6	115	
COc1cc(OC)cc(N(CCO)c2ccc3ncc(N4CCC(CN)CC4)nc3c2)c1 [Compound 84]	44.7	91.2	40.7	<5	159	
COc1cc(OC)cc(N(CCCNCC(F)(F)F)c2ccc3ncc(-c4ccn(C)c4)nc3c2)c1 [Compound 5]	6.92	15.1	9.55	5.7		
COc1cc(OC)cc(N(CCCNC(C)C)c2ccc3ncc(-c4ccnc(N)c4)nc3c2)c1 [Compound 143]	1.05	3.39	2.51	6.9		

Results, then the molecule that gave them:

IC50 (FGFR1 (h)) [nM]	IC50 (FGFR2 (h)) [nM]	IC50 (FGFR3 (h)) [nM]	BAF3-FGFR4 pIC50 [1]	melting point [°C]	BAF3-FGFR4 pIC50 ([1]; 384 well)	Compound
269	~4170	2630	<5	180		COc1cc(OC)cc(N(CC2CC2)c2ccc3ncc(C(=O)Nc4cncn4C)nc3c2)c1 [Compound 27]
513	1820	417		181	<5	COc1cc(OC)cc(N(CC2CC2)c2ccc3ncc(-c4ccc5[nH]ccc5c4)nc3c2)c1 [Compound 86]
> 10000	> 10000	2340	<5	176		COc1cc(OC)cc(N(CC2CC2)c2ccc3ncc(C(=O)N4CCC4)nc3c2)c1 [Compound 93]
3.63	4.07	9.12	6.1	111		COc1cc(OC)cc(N(CCN2CCNCC2)c2ccc3ncc(-c4ccc(N)nc4)nc3c2)c1 [Compound 59]
316	398	126	<5			COc1cc(OC)cc(N(CC2CC2)c2ccc3ncc(N4CCN(CCO)CC4)nc3c2)c1 [Compound 49]
15.8	13.2	3.8	6.0	190		COc1cc(OC)cc(N(CCCO)c2ccc3ncc(-c4ccnc(C(=O)N5CCOCC5)c4)nc3c2)c1 [Compound 43]
1320	> 10000	1450	<5	160		COc1cc(OC)cc(N(CC2CC2)c2ccc3ncc(-n4cccn4)nc3c2)c1 [Compound 95]
24	25.7	10.2	<5	175		COc1cc(OC)cc(N(CCCO)c2ccc3ncc(-c4ccnc(Cl)c4)nc3c2)c1 [Compound 136]
3.89	10.7	1.95	6.1	193		COc1cc(OC)cc(N(CCO)c2ccc3ncc(-c4ccc(N5CCOCC5)nc4)nc3c2)c1 [Compound 19]
28.2	95.5	34.7		166	<5	COc1cc(OC)cc(N(CC2CC2)c2ccc3ncc(C#Cc4cncn4C)nc3c2)c1 [Compound 22]
617	955	209		144	<5	COc1cc(OC)cc(N(CC2CC2)c2ccc3ncc(-c4ccc5c(c4)OCO5)nc3c2)c1 [Compound 87]
302	380	191		134	<5	COc1cc(OC)cc(N(CC2CC2)c2ccc3ncc(-c4nnc(C)o4)nc3c2)c1 [Compound 85]
363	661	263	<5	155		COc1cc(OC)cc(N(CC2CC2)c2ccc3ncc(-c4cccc(N5CCOCC5)c4)nc3c2)c1 [Compound 92]
30.2	95.5	36.3		125	5.3	COc1cc(OC)cc(N(CC2CC2)c2ccc3ncc(-c4ccnc(N5CCN(C)CC5)c4)nc3c2)c1 [Compound 37]
575	1150	380		234	<5	COc1cc(OC)cc(N(CC2CC2)c2ccc3ncc(-c4cnc5[nH]ccc5c4)nc3c2)c1 [Compound 88]
